# Laboratory results as given in patent US4068001A, “Method of medical treatment of pancreatic insufficiency” (priority 1976, dated 1978).
# Experiments:
# [1] = Solubility of Coenzyme Q10 (properties); type: physicochemical
# Description: Coenzymes Q used in the present invention, for example, Coenzyme Q10 (the compound in which n = 10 in the above formula), can be mainly obtained synthetically, although it is possible to extract Coenzyme Q from animal organs. The physical and chemical properties of Coenzyme Q10 produced synthetically are as follows.
# rats of Wistar strain [2] = test: Acute toxicity test in rats (single high dose); type: in vivo, rat (Wistar strain)
# Description: (§1) In order to evaluate the acute toxicity of a single high dose administration of Coenzyme Q10, male and female rats of Wistar strain and male and female mice of ICR-JCL strain were used, and oral, intramuscular, subcutaneous, and intravenous administrations were studied. For the oral administration of Coenzyme Q10, a gum Arabic suspension was used. For the intramuscular, subcutaneous and intravenous administrations, Coenzyme Q10 was used as a solution containing a nonionic surfactant, Nikkol HCO-60 . Nikkol HCO-60 is a trade mark of a non-ionic surfacent comprised of hydrogenated castor oil/polyoxyethylene-60 mole ether available from Nikko Chemicals, Co. Ltd., Japan.
# (§2) Observation was carried out for 7 days by using six males and six females for each dose group.
# mice of ICR-JCL strain = test: Acute toxicity test in mice (single high dose); type: in vivo, mouse (ICR-JCL strain)
# Description: as §1, §2
# rats of Wistar strain [3] = test: Subacute oral toxicity test in rats (5 weeks); type: in vivo, rat (Wistar strain)
# Description: (§3) Coenzyme Q10 was compulsorily and orally administered every day for 5 weeks to each group consisting of 10 male rats and 10 female rats of Wistar strain. The dose was 40, 200, and 1000 mg/Kg/day, respectively. Coenzyme Q10 was used in the form of gum Arabic suspension, while the solution containing gum Arabic alone was used as the control group. Collection of blood and urine samples and autopsies were carried out 5 weeks after the initiation of administration.
# rabbits = test: Subacute oral toxicity test in rabbits (23 days); type: in vivo, rabbit
# Description: Coenzyme Q10 was compulsorily and orally administered every day for 23 days to each group consisting of six male rabbits and five female rabbits. The dose was 6, 60 and 600 mg/Kg/day, respectively. Coenzyme Q10 was used in the form of gum Arabic suspension, whereas the solution containing gum Arabic alone was used as the control group, On the 24th day, blood samples were collected from all the animals, and three males and two females from each group were then selectively autopsied.
# rats of Wistar strain [4] = test: Chronic oral toxicity test in rats (26 weeks); type: in vivo, rat (Wistar strain)
# Description: Coenzyme Q10 was compulsorily and orally administered to each group consisting of 10 male rats and 10 female rats of Wistar strain for consecutive 26 weeks in a ratio of 6 days a week. The dose was 6, 60 and 600 mg/Kg/day, respectively. Coenzyme Q10 was used in the form of gum Arabic suspension, whereas the solution containing gum Arabic alone is used as the control group. Collection of blood and urine samples and autopsies were carried out 26 weeks after the administration.
# rats = test: Teratogenesis test in rats; type: in vivo, rat; conditions: rats, 6, 60, 600 mg/Kg/day
# mice = test: Teratogenesis test in mice; type: in vivo, mouse; conditions: mice, 6, 60, 600 mg/Kg/day
# [5] = Overall conclusion of acute, subacute, chronic toxicity and teratogenesis tests; type: in vivo; conditions: conclusion from all toxicity tests
# Description: as §1, §2, §3
# Coenzyme Q10 was compulsorily and orally administered every day for 23 days to each group consisting of six male rabbits and five female rabbits. […]
# [6] = system: pancreas external secretion; test: Quantity of pancreatic juice secreted after pancreozymin in anesthetized rats; type: in vivo, rat (male Wistar)
# Description: (§4) Male Wistar rats weighing 300-400 g were fasted for 14-20 hours and then anesthetized with 1 g/Kg of urethane. A stainless steel tube was inserted into the common bile duct at the opening to the duodenum and fixed thereto (pancreatic cannula) to take out pancreatic juice. The common bile duct was ligated at an upper portion and a polyethylene tube was inserted into the bile duct and fixed thereto to allow the bile to flow outward. The pylorus was ligated. The medicament was administered into a femoral vein through the polyethylene tube.
# (§5) The quantity of the pancreatic juice was measured by using a calibrated silicone rubber tube fitted to the pancreatic duct cannula. The tube was changed every 10 minutes.
# (§6) Coenzyme Q10 was solubilized in water with Nikkol HCO-60 before use. An aqueous solution of Nikkol HCO-60 was used as placebo.
# (§7) Coenzyme Q10 (3 mg/100 g body weight) and the placebo were administered to the rats through the femoral vein. After 60 minutes, pancreozymin (0.2 Crick, Harper and Raper unit/100 g body weight) was administered through the femoral vein.
# (§8) FIGS. 1 and 2 show the quantities of pancreatic juice secreted when placebo was administered and when Coenzyme Q10 was administered, respectively. In FIGS. 1 and 2, the ordinates represent the quantity of the pancreatic juice secreted (μl/min./100 g body weight) and the abscissae represent time (min.). FIGS. 3 and 4 show the quantities of amylase secreted when placebo was administered and when Coenzyme Q10 was administered, respectively. In FIGS. 3 and 4, the ordinates represent quantity of amylase secreted (unit/min./100 g body weight) and the abscissae represent time (min.). In FIGS. 1-4, the values are average values ± standard deviation. The arrows in the figures indicate the times when Coenzyme Q10, placebo and pancreozymin were administered.
# [7] = system: amylase of the pancreatic juice; test: Quantity of amylase secreted in pancreatic juice after pancreozymin in anesthetized rats; type: in vivo, rat (male Wistar)
# Description: as §4, §5
# Amylase activity of the pancreatic juice was determined by Kanno's method [Journal of Physiology (London) Vol. 245, P. 599 (1975)]. One amylase unit indicates a unit of amylase activity producing 1 mg of maltose by incubation of 37° C for 5 minutes.
# as §6, §7, §8
# [8] = any administration group, 7 days
# [9] = intramuscular, Nikkol HCO-60 solution, single dose, 7 days
# [10] = intravenous, Nikkol HCO-60 solution, single dose, 7 days
# [11] = maximum dose in each administration route
# [12] = oral, gum Arabic suspension, single dose, 7 days observation
# [13] = relative to maximum doses of Table 1
# [14] = subcutaneous, Nikkol HCO-60 solution, single dose, 7 days
# [15] = 40, 200, 1000 mg/Kg/day oral, 5 weeks
# [16] = 6, 60, 600 mg/Kg/day oral, 23 days
# [17] = 6, 60, 600 mg/Kg/day oral, 26 weeks
# [18] = spontaneous pneumonia and aspiration pneumonia due to erroneous administration, dose group not stated
# [19] = 3 mg/100 g femoral vein, after pancreozymin
# [20] = 10 minutes after pancreozymin, Coenzyme Q10 3 mg/100 g i.v. (femoral vein) 60 minutes before
compound,measurement,setting,value
COC1=C(OC)C(=O)C(C/C=C(\C)CC/C=C(\C)CC/C=C(\C)CC/C=C(\C)CC/C=C(\C)CC/C=C(\C)CC/C=C(\C)CC/C=C(\C)CC/C=C(\C)CCC=C(C)C)=C(C)C1=O [Coenzyme Q10],solubility in acetone,[1]; acetone,soluble
same,solubility in benzene,[1]; benzene,easily soluble
same,solubility in carbon tetrachloride,[1]; carbon tetrachloride,easily soluble
same,solubility in chloroform,[1]; chloroform,easily soluble
same,solubility in ethanol,[1]; ethanol,insoluble
same,solubility in ether,[1]; ether,soluble
same,solubility in methanol,[1]; methanol,hardly soluble
same,solubility in water,[1]; water,hardly soluble
same,acute toxicity (conclusion),rats of Wistar strain [2],extremely low
same,"general condition, body weight, food intake, autopsy findings",rats of Wistar strain [2]; [8],no change was recognized
same,"Maximum dose (no case of deaths), intramuscular",rats of Wistar strain [2]; [9],500 mg/kg
same,"Maximum dose (no case of deaths), intravenous",rats of Wistar strain [2]; [10],250 mg/kg
same,deaths,rats of Wistar strain [2]; [11],no case of deaths
same,"Maximum dose (no case of deaths), oral",rats of Wistar strain [2]; [12],4000 mg/kg
same,LD50,rats of Wistar strain [2]; [13],far higher than the maximum dose mentioned above
same,"Maximum dose (no case of deaths), subcutaneous",rats of Wistar strain [2]; [14],500 mg/kg
same,acute toxicity (conclusion),mice of ICR-JCL strain,extremely low
same,"general condition, body weight, food intake, autopsy findings",mice of ICR-JCL strain; [8],no change was recognized
same,"Maximum dose (no case of deaths), intramuscular",mice of ICR-JCL strain; [9],500 mg/kg
same,"Maximum dose (no case of deaths), intravenous",mice of ICR-JCL strain; [10],250 mg/kg
same,deaths,mice of ICR-JCL strain; [11],no case of deaths
same,"Maximum dose (no case of deaths), oral",mice of ICR-JCL strain; [12],4000 mg/kg
same,LD50,mice of ICR-JCL strain; [13],far higher than the maximum dose mentioned above
same,"Maximum dose (no case of deaths), subcutaneous",mice of ICR-JCL strain; [14],500 mg/kg
same,general condition and body weight versus control group,rats of Wistar strain [3]; [15],no difference
same,hematological test and biochemical test of blood and urine,rats of Wistar strain [3]; [15],No significant change was recognized
same,weight of each organ,rats of Wistar strain [3]; [15],no significant change
same,macroscopical and histological observation,"rats of Wistar strain [3]; hematoxylin-eosine staining and liver fat staining, 5 weeks",abnormality was not recognized
same,toxicity (conclusion),"rats of Wistar strain [3]; oral, 5 weeks",there was not recognized the toxicity seemingly due to the administration
same,dead animals during the experiment,"rats of Wistar strain [3]; spontaneous pneumonia and aspiration pneumonia due to error of administration, dose group not stated",four
same,general condition and increase of body weight versus control group,rabbits; [16],no difference
same,hematological test and biochemical test of blood,rabbits; [16],Abnormal findings were not obtained
same,weight of each organ,rabbits; [16],no effect on the weight of each organ
same,electron-microscopic observation of liver,"rabbits; 7th, 14th and 24th days",there were not recognized abnormal findings on the minute structure of the liver
same,macroscopical and histological observation,rabbits; hematoxylin-eosine staining and liver fat staining,abnormalities were not recognized
same,toxicity (conclusion),"rabbits; oral, 23 days",there were not recognized the findings wherein the toxicity of Coenzyme Q10 will be suggested
same,body weight,rats of Wistar strain [4]; [17],increased the same as that of the control group
same,general condition versus control group,rats of Wistar strain [4]; [17],no difference
same,weights of organs,rats of Wistar strain [4]; 26 weeks,no significant increase and decrease
same,leukocytal percentages,"rats of Wistar strain [4]; hematological findings, 26 weeks","some increase and decrease, but do not provide the mutual relation depending upon the dose; the percentages being within the range of physiological fluctuations"
same,macroscopical and histological observation,"rats of Wistar strain [4]; hematoxylin-eosine staining and liver fat staining, versus control group",abnormalities were not recognized
same,toxicity (conclusion),"rats of Wistar strain [4]; oral, 26 weeks",no toxicity was observed
same,"deaths, females",rats of Wistar strain [4]; [18],three
same,"deaths, males",rats of Wistar strain [4]; [18],11 males
same,biochemical tests of blood and urine,"rats of Wistar strain [4]; versus control group, 26 weeks",No significant changes were recognized
same,"adverse effects in mothers, fetuses and newborns",rats,no adverse effects were noted
same,"adverse effects in mothers, fetuses and newborns",mice,no adverse effects were noted
same,overall safety,[5],"a very safe drug, without side-effects"
same,"fourth response, quantity of pancreatic juice, P versus placebo",[6]; [19],< 0.05
same,"quantity of pancreatic juice secreted, comparison with placebo group",[6]; [19],significantly superior
same,"second response, quantity of pancreatic juice, P versus placebo",[6]; [19],< 0.02
same,"third response, quantity of pancreatic juice, P versus placebo",[6]; [19],< 0.02
same,"first response, quantity of pancreatic juice secreted, ratio to placebo group",[6]; [20],about 1.5 times
same,"second through fourth responses, quantity of amylase, P versus placebo","[7]; 3 mg/100 g femoral vein, after pancreozymin, all cases",higher than 0.05
same,"first response, quantity of amylase secreted, ratio to placebo group",[7]; [20],about 1.6 times
same,"quantity of amylase secreted, comparison with placebo group","[7]; second through fourth responses, 3 mg/100 g femoral vein, after pancreozymin",significantly superior
